Consider two compounds from patent US20140378541A1, “Synthetic Epigallocatechin Gallate (EGCG) Analogs” (WAYNE STATE UNIVERSITY, priority 2011, published 2014).

For assay [1], the target named is T1, proteasomal chymotrypsin-like activity of MDA-MB-231 cell extracts (Homo sapiens, UniProt P28074).
T1 construct: endogenous in cells; host or cells: MDA-MB-231 human breast cancer cells (ATCC), cell extract
T1 sequence (P28074 60-263): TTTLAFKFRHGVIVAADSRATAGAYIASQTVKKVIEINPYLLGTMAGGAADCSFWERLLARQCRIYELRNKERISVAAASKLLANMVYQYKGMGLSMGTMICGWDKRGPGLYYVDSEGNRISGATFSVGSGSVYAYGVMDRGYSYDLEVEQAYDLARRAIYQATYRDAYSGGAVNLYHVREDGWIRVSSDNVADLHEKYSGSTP
The assay is described as follows: Proteasomal chymotrypsin-like activity in MDA-MB-231 cell lysate with high COMT activity. The class given is biochemical. The conditions noted are these: 10 μM. The method, then:
(A) MDA-MB-231 cell extracts (5.7 μg) were incubated with different concentrations of compound 5 or 7 or EGCG for 2 hours, followed by performance of proteasomal chymotrypsin-like activity assay. EGCG was used as a control. (B) MDA-MB-231 cell extracts (5.7 μg) were pre-treated with 10 μM DNC for 20 minutes, followed by co-incubation with compound 5, or 7 or EGCG for 2 h. The proteasomal chymotrypsin-like activity was measured.
Human breast cancer MDA-MB-231 cell lysate that contains high COMT activity were treated with varying concentrations of compound 5 or 7. […] Thus, consistent with previous reports EGCG is also susceptible to methylation by COMT (H., Lu, X. Meng, C. S. Yang, Drug Metabolism and Disposition; 31; 572, 2003).

The subject of assay [2] is human multiple myeloma ARP cells. The assay is described as follows: MTT assay in multiple myeloma ARP cells, alone or with Velcade. It is filed as cell-based. Conditions: 20 μM plus varying doses of Velcade, 48 h. Here is the method:
The cells were treated with Velcade™ alone or with 20 μM of compounds 5, 7 and 23 or in combination with varying doses of Velcade™ for 48 hrs, followed by a MTT assay.
Human multiple myeloma cells (Arp and Opm1) cells, kindly provided by Dr. Ramesh Batchu (Wayne State University), were grown in RPMI-1640 medium supplemented with 10% FBS, 100 units/ml of penicillin, and 100 μg/ml of streptomycin. Cells were maintained at 37° C. in 5% CO2 (Mujtaba T, et al., Int J Mol Med. (2012) 29(1):102-6).
Cells were grown in a 96-well plate. Triplicate wells of cells were treated with indicated concentrations of EGCG or EGCG analogs for 24 h. After aspiration of medium, MTT (1 mg/ml) was then added to the cell cultures, followed by incubation for 3 h at 37° C. After cells were crystallized, MTT was removed and DMSO was added to dissolve the metabolized MTT product. The absorbance was then measured on a Wallac Victor3 1420 Multi-label counter at 540 nm.

Each structure is given as a SMILES string.

For orientation: inhibition means the share of the control response that was lost under treatment. In assay [1], `O=C(O[C@@H]1Cc2c(O)cc(O)cc2O[C@@H]1c1cc(O)c(O)c(O)c1)c1cc(O)c(O)c(O)c1` [Compound 1, (−)-Epigallocatechin gallate, reference compound] had an inhibition at 10 µM of about 22%.

For `O=C(O[C@H]1Cc2ccccc2C[C@H]1OC(=O)c1cc(O)c(Br)c(O)c1)c1cc(O)c(Br)c(O)c1` [Compound 23], in assay [2], the “effect on cell proliferation when combined with Velcade” value is recorded as “synergistic inhibitory effect”.
